Results reported in article PMC7252619 (PLoS ONE, 2020).

Columns and labels:
Assay in all cases: Kinase activity test (ReactionBiology), % enzyme activity relative to DMSO
Type in all cases: biochemical
NEK2 = molecular target: T1, NEK2 (Homo sapiens, UniProt P51955); settings: NEK2;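 note: FDA-approved drugs chosen by structure-based repositioning, each screened at 10 or 1 µM for kinase activity, expressed as percent of DMSO controls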
T1 construct: purchased ReactionBiology
T1 sequence (P51955 1-445): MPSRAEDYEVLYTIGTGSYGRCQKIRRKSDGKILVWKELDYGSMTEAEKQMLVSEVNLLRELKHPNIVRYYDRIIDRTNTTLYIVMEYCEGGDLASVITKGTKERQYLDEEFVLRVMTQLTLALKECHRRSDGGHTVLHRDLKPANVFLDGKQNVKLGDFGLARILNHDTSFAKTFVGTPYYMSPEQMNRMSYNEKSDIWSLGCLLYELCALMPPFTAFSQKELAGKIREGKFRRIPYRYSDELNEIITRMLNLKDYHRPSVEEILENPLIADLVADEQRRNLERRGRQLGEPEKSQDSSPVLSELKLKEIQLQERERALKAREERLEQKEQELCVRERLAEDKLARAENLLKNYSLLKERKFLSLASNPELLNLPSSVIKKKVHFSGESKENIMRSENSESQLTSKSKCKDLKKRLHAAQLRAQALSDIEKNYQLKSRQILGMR

CK1d = molecular target: T2, CK1d (Homo sapiens, UniProt P48730); settings: CK1d; for % Enzyme Activity (relative to DMSO controls), Data 1: replicate Data 1; for % Enzyme Activity (relative to DMSO controls), Data 2: replicate Data 2
T2 construct: purchased ReactionBiology
T2 sequence (P48730 whole entry): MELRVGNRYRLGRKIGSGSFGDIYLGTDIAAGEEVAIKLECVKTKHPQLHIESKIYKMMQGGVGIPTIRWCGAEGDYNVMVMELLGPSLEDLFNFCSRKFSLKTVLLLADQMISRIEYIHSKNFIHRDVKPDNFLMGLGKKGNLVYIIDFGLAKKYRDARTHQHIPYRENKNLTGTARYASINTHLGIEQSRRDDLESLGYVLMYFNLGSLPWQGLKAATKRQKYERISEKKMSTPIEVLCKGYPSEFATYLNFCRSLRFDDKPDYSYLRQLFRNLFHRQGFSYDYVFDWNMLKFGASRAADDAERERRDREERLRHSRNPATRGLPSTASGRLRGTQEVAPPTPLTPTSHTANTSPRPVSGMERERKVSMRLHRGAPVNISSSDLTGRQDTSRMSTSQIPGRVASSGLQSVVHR

VEGFR2 = VEGFR2 (Homo sapiens, UniProt P35968); design: purchased ReactionBiology; settings: VEGFR2; for % Enzyme Activity (relative to DMSO controls), Data 1: replicate Data 1; for % Enzyme Activity (relative to DMSO controls), Data 2: replicate Data 2;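 for all read-outs here: VEGFR2 was one member of a ten-kinase screening panel testing marketed FDA-approved drugs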
VEGFR2, sequence (P35968 20-1356): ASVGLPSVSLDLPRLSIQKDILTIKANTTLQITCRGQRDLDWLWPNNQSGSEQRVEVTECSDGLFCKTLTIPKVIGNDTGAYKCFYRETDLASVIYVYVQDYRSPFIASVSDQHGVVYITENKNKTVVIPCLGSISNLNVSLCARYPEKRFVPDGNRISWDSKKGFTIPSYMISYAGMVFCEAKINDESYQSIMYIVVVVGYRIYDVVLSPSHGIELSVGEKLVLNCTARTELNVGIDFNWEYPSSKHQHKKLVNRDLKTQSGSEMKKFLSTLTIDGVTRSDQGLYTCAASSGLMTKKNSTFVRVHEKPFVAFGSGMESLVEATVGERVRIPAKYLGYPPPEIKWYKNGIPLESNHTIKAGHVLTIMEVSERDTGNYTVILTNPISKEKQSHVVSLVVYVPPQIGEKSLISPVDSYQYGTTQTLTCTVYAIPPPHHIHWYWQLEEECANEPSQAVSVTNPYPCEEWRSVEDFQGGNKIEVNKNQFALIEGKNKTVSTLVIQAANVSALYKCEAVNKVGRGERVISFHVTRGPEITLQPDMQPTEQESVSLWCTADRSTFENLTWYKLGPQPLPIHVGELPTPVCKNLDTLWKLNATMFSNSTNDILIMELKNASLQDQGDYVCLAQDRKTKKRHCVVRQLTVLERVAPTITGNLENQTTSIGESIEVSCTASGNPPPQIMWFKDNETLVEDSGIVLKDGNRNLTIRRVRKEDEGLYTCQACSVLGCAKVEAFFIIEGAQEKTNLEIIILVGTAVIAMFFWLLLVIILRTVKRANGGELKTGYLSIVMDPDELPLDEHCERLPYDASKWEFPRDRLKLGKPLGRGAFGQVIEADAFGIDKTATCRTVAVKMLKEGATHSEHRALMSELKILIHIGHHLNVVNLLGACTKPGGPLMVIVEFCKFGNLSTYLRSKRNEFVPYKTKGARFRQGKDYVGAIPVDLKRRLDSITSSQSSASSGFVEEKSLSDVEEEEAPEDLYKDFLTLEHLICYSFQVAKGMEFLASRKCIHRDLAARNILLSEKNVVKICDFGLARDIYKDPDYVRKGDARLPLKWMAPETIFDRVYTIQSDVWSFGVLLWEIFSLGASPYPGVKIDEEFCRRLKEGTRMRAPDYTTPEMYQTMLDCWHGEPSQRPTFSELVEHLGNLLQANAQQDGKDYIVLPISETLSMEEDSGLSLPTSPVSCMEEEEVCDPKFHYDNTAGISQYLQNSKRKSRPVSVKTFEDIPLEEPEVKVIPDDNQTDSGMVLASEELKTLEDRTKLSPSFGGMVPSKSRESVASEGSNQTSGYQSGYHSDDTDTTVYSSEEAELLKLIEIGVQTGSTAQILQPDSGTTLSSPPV

[1] = compound at 1 uM, average of Data 1 and Data 2
[2] = compound at 10 uM, average of Data 1 and Data 2

Row | SMILES | % Enzyme Activity (relative to DMSO controls), Average (NEK2; 1 uM, Average) | % Enzyme Activity (relative to DMSO controls), Data 1 (NEK2; 1 uM, replicate Data 1) | % Enzyme Activity (relative to DMSO controls), Data 2 (NEK2; 1 uM, replicate Data 2) | % Enzyme Activity (relative to DMSO controls), Average (NEK2; 10 uM, Average) | % Enzyme Activity (relative to DMSO controls), Data 1 (NEK2; 10 uM, replicate Data 1) | % Enzyme Activity (relative to DMSO controls), Data 2 (NEK2; 10 uM, replicate Data 2) | further results
1 | Cc1nc(=O)c2cc(CN(C)c3ccc(C(=O)N[C@@H](CCC(=O)O)C(=O)O)s3)ccc2[nH]1 [Raltitrexed] | 103.04% | 108.18% | 97.89% | 95.93% | 101.42% | 90.43% | % Enzyme Activity (relative to DMSO controls), Average (VEGFR2; 1 uM): 107.68%; % Enzyme Activity (relative to DMSO controls), Data 1 (VEGFR2; 1 uM): 107.41%; % Enzyme Activity (relative to DMSO controls), Data 2 (VEGFR2; 1 uM): 107.94%; % Enzyme Activity (relative to DMSO controls), Average (VEGFR2; 10 uM): 105.59%; % Enzyme Activity (relative to DMSO controls), Data 1 (VEGFR2; 10 uM): 105%; % Enzyme Activity (relative to DMSO controls), Data 2 (VEGFR2; 10 uM): 106.17%
2 | Nc1nc2[nH]cnc2c(=S)[nH]1 [Thioguanine] | 92.40% | 91.41% | 93.38% | 107.92% | 110.57% | 105.26% | –
3 | Nc1nc2c(ncn2COC(CO)CO)c(=O)[nH]1 [Ganciclovir] | – | – | – | – | – | – | % Enzyme Activity (relative to DMSO controls), Average (NEK2; [1]): 111.12%; % Enzyme Activity (relative to DMSO controls), Data 1 (NEK2; compound at 1 uM, replicate 1): 112.02%; % Enzyme Activity (relative to DMSO controls), Data 2 (NEK2; compound at 1 uM, replicate 2): 110.21%; % Enzyme Activity (relative to DMSO controls), Average (NEK2; [2]): 89.44%; % Enzyme Activity (relative to DMSO controls), Data 1 (NEK2; compound at 10 uM, replicate 1): 97.24%; % Enzyme Activity (relative to DMSO controls), Data 2 (NEK2; compound at 10 uM, replicate 2): 81.63%
4 | OC[C@@H](O)[C@@H](O)[C@H](O)[C@H](O)CO [Mannitol] | – | – | – | – | – | – | % Enzyme Activity (relative to DMSO controls), Average (NEK2; [1]): 113.06%; % Enzyme Activity (relative to DMSO controls), Data 1 (NEK2; compound at 1 uM, replicate 1): 110.81%; % Enzyme Activity (relative to DMSO controls), Data 2 (NEK2; compound at 1 uM, replicate 2): 115.31%; % Enzyme Activity (relative to DMSO controls), Average (NEK2; [2]): 102.41%; % Enzyme Activity (relative to DMSO controls), Data 1 (NEK2; compound at 10 uM, replicate 1): 100.39%; % Enzyme Activity (relative to DMSO controls), Data 2 (NEK2; compound at 10 uM, replicate 2): 104.43%

Continued, in another order:

Row | % Enzyme Activity (relative to DMSO controls), Average (NEK2; 1 uM, Average) | % Enzyme Activity (relative to DMSO controls), Data 1 (NEK2; 1 uM, replicate Data 1) | % Enzyme Activity (relative to DMSO controls), Data 2 (NEK2; 1 uM, replicate Data 2) | % Enzyme Activity (relative to DMSO controls), Average (NEK2; 10 uM, Average) | % Enzyme Activity (relative to DMSO controls), Data 1 (NEK2; 10 uM, replicate Data 1) | % Enzyme Activity (relative to DMSO controls), Data 2 (NEK2; 10 uM, replicate Data 2) | SMILES | further results
5 | 92.13% | 87.06% | 97.20% | 102.79% | 100.11% | 105.46% | O=C(O)c1cc(-c2ccc(F)cc2F)ccc1O [Diflunisal] | % Enzyme Activity (relative to DMSO controls), Average (CK1d; 1 uM): 189.68%; % Enzyme Activity (relative to DMSO controls), Data 1 (CK1d; 1 uM): 106.89%; % Enzyme Activity (relative to DMSO controls), Data 2 (CK1d; 1 uM): 272.47%; % Enzyme Activity (relative to DMSO controls), Average (CK1d; 10 uM): 105.59%; % Enzyme Activity (relative to DMSO controls), Data 1 (CK1d; 10 uM): 104.76%; % Enzyme Activity (relative to DMSO controls), Data 2 (CK1d; 10 uM): 106.42%
6 | 95.71% | 89.78% | 101.63% | 100.82% | 99.97% | 101.67% | Cc1nnc(C(C)C)n1C1C[C@H]2CC[C@@H](C1)N2CC[C@H](NC(=O)C1CCC(F)(F)CC1)c1ccccc1 (stereo in doubt) [Maraviroc] | –
7 | 93.64% | 83.95% | 103.33% | 100.63% | 101.40% | 99.86% | Nc1nc2c(ncn2COCCO)c(=O)[nH]1 [Acyclovir] | –
